Experimental data from US5496805A, “Inhibitors of neutral endopeptidase” (priority 1990, dated 1996).
Counter-ions that a name gives are not always drawn.

What follows are molecules tested against T1, neutral endopeptidase (Rattus norvegicus, UniProt P07861) (assay: biochemical). Details: enzyme purified from rat kidney; Dns-Gly-Phe-Arg 0.5 mM; pH 7.5; 37°, 30 minutes; inhibitor preincubated 10 minutes.
T1 sequence (P07861 1-750): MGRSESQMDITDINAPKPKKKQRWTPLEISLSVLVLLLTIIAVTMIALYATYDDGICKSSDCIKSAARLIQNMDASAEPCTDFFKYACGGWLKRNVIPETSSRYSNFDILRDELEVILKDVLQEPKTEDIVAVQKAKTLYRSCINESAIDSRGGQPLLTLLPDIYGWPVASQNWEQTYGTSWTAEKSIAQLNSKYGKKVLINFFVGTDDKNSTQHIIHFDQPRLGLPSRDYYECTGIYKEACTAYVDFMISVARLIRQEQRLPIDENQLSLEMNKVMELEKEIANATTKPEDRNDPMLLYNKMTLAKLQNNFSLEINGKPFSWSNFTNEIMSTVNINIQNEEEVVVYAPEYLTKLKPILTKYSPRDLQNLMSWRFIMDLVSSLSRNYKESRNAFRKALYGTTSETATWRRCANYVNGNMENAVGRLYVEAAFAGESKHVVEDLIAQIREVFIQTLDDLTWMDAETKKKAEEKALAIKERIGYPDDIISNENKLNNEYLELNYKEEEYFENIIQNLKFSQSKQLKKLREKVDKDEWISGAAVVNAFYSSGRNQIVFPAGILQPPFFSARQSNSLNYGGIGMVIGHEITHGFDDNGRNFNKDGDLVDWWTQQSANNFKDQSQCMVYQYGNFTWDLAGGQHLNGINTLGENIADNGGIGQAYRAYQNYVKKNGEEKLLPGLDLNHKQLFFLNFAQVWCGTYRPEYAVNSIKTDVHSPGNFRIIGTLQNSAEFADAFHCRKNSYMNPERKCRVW
Description: The in vitro neutral endopeptidase activity is determined using a fluorometric assay procedure. The assay is based upon the cleavage of the fluorescent dansylated tripeptide Dns-Gly-Phe-Arg to form Dns-Gly. The latter is extracted from the acidified mixture by ethyl acetate and is strongly fluorescent.
The incubation mixture employed for the assay contains the substance Dns-Gly-Phe-Arg (0.5 mM), tris(hydroxymethyl)aminomethane -HCl buffer (pH 7.5, 50 mM), an enzyme preparation in 0.05% Triton X-100, and water or inhibitor diluted to a final volume of 0.25 ml. The enzyme preparation is purified from rat kidney according to the procedure described by Almenoff et al. in Biochemistry Vol. 22, p. 590-599 (1983). The inhibitor is preincubated for 10 minutes with the enzyme preparation and buffer before the reaction is initiated by the addition of the substrate. Incubation is carried out at 37° for 30 minutes and the reaction is stopped by the addition of 0.25 ml. 1N HCl and extraction of the Dns-Gly product into 1.5 ml. of ethyl acetate. Relative fluorescent intensity (RFI) of the ethyl acetate extract is measured using a Ferrand Spectofluorometer at excitation and emission wavelengths of 342 and 508 nm., respectively, corrected for the RFI of a zero-time control, and compared with assays lacking inhibitor.
Runs are made at different concentrations of test compound and by use of a mathematical model the IC50 is determined. The IC50 is the concentration of test compound that inhibits activity of the enzyme by 50%.

In order of rising IC50:
1. CC(C)CC(CS)C(=O)N[C@@H](C)C(=O)O (single isomer, unassigned; isomer b) [Example 13, N-[2-(Mercaptomethyl)-4-methyl-1-oxopentyl]-L-alanine (isomer B)]  2.2 nM
2. O=C(N[C@@H](Cc1ccccc1)C(=O)O)C(CS)Cc1ccccc1 (single isomer, unassigned; isomer a) [Example 31, N-[2,(Mercaptomethyl)-1-oxo-3-phenylpropyl]-L-phenylalanine (isomer A)]  5.3 nM
3. CSCC[C@H](NC(=O)C(CS)Cc1ccccc1)C(=O)O (mixture of isomers) [Example 22, (±)-N-[2-(Mercaptomethyl)-1-oxo-3-phenylpropyl]-L -methionine]  6.7 nM
4. O=C(O)CCNC(=O)C(CS)Cc1ccccc1 (racemic) [Example 45, (±)-3-[[2-(Mercaptomethyl)-1-oxo-3-phenylpropyl]amino]propanoic acid]  8.9 nM
5. CC(C)CC(CS)C(=O)N[C@@H](Cc1ccccc1)C(=O)O (mixture of isomers) [Example 33, (±)-N-[2-(Mercaptomethyl)-4-methyl-1-oxopentyl]-L-phenylalanine]  9 nM
6. CC(CS)C(=O)N[C@@H](Cc1ccc(O)cc1)C(=O)O (mixture of isomers) [Example 6, N-(DL-3-Mercapto-2,methyl1-oxopropyl)-L-tyrosine]  13 nM
7. CC(CS)C(=O)N[C@@H](Cc1ccccc1)C(=O)O (mixture of isomers) [Example 17, (±)-N-(3-Mercapto-2-methyl-1-oxopropyl)-L-phenylalanine, 1,1-dimethylethanamine salt (1:1)]  14 nM
8. O=C(N[C@@H](Cc1ccc(O)cc1)C(=O)O)C(CS)Cc1ccccc1 (mixture of isomers) [Example 29, (±)-N-[2-(Mercaptomethyl)-1-oxo-3-phenylpropyl]-L -tyrosine]  17 nM
9. O=C(O)C[C@H](Cc1ccccc1)NC(=O)C(CS)Cc1ccccc1 (single isomer, unassigned; isomer a) [Example 47]  18 nM
10. CCCC[C@H](NC(=O)C(CS)Cc1ccccc1)C(=O)O (single isomer, unassigned; isomer b) [Example 30, N-[2,(Mercaptomethyl)-1-oxo,3-phenylpropyl]-L-norleucine (isomer B)]  20 nM
11. CC(CS)C(=O)N[C@H](C(=O)O)C(C)C (mixture of isomers) [Example 20, (±)-N-(3-Mercapto-2-methyl-1-oxopropyl)-L-valine]  21 nM
12. CC(C)CC(CS)C(=O)N[C@@H](C)C(=O)N[C@@H](CCCN=C(N)N)C(=O)O (single isomer, unassigned; isomer a) [Example 56, N-[N-[2-(Mercaptomethyl)-4-methyl-1-oxopentyl]-L-alanyl]-L-arginine (isomer A)]  23 nM
13. C[C@H](NC(=O)[C@H](Cc1ccccc1)NC(=O)CS)C(=O)O [Example 60, N-[N-(Mercaptoacetyl)-L-phenylalanyl]-L-alanine]  31 nM
14. O=C(NCCCC[C@H](NC(=O)C(CS)Cc1ccccc1)C(=O)O)OCc1ccccc1 (mixture of isomers) [Example 26, (±)-N^2-[2-(Mercaptomethyl)-1-oxo-3-phenylpropyl]-N^6-[(phenylmethoxy)carbonyl]-L-lysine, N-cyclohexylcyclohexanamine salt (1:1)]  32 nM
15. C[C@H](CS)C(=O)N[C@@H](CC(=O)O)C(=O)O [Example 42, (S)-N-(3-Mercapto-2-methyl-1-oxopropyl)-L-aspartic acid]  36 nM
16. O=C(O)CCNC(=O)C(Cc1ccccc1)CP(=O)(O)O (stereo not drawn) [Example 75, 3-[[1-Oxo-2-(phenylmethyl)-3-phosphonopropyl]amino]propanoic acid]  40 nM
17. CSCC[C@H](NC(=O)C(C)CS)C(=O)O (mixture of isomers) [Example 23, (±)-N-(3-Mercapto-2-methyl-1-oxopropyl)-L-methionine, 1,1-dimethylethanamine salt (1:1)]  49 nM
18. O=C(O)C[C@H](Cc1ccccc1)NC(=O)C(CS)Cc1ccccc1 (single isomer, unassigned; isomer b) [Example 48]  52 nM
19. C[C@H](NC(=O)[C@H](S)Cc1ccccc1)C(=O)N1CCC[C@H]1C(=O)O [Example 65]  62 nM
20. CC(C)C[C@H](NC(=O)C(C)CS)C(=O)O (mixture of isomers) [Example 18, (±)-N-(3-Mercapto-2-methyl-1-oxopropyl)-L-leucine, 1,1-dimethylethanamine salt (1:1)]  69 nM
21. O=C(O)CCCCCCCCCCNC(=O)C(CS)Cc1ccccc1 (racemic) [Example 53, (±)-11-[[2-(Mercaptomethyl)-1-oxo-3-phenylpropyl]amino]undecanoic acid]  76 nM
22. C[C@H](CS)C(=O)N[C@@H](Cc1ccc(O)c(O)c1)C(=O)O [Example 14, 3-Hydroxy-N-(D-3-mercapto-2-methyl-1-oxopropyl)-L-tyrosine]  91 nM
23. O=C(CS)N[C@@H](Cc1ccccc1)C(=O)N[C@@H](Cc1ccccc1)C(=O)O [Example 61, N-[N-(Mercaptoacetyl)-L-phenylalanyl]-L-phenylalanine]  120 nM
24. CC(CS)C(=O)N[C@@H](C)C(=O)O (mixture of isomers) [Example 25, (±)-N-(3-Mercapto-2-methyl-1-oxopropyl)-L-alanine, N-cyclohexylcyclohexanamine salt (1:1)]  120 nM
25. CC(C)C[C@H](NC(=O)[C@H](C)CS)C(=O)O [Example 40, (S),N-(3-Mercapto-2-methyl-1-oxopropyl)-L-leucine]  190 nM
26. CC(C)CC(CS)C(=O)NCC(=O)O (racemic) [Example 8, (±)-N-[2-(Mercaptomethyl)-4-methyl-1-oxopentyl]-glycine]  280 nM
27. N=C(N)NCCC[C@H](NC(=O)C(CS)Cc1ccccc1)C(=O)O (mixture of isomers) [Example 4, N-[DL-2-(Mercaptomethyl)-1-oxo-3,-phenylpropyl]-L-arginine]  290 nM
28. CC(C)C[C@H](NC(=O)CS)C(=O)NCC(=O)O [Example 63, N-[N-(Mercaptoacetyl)-L-leucyl]glycine]  310 nM
29. CC(C)CC(CS)C(=O)NCC(=O)N[C@@H](CCC(N)=O)C(=O)O (mixture of isomers) [Example 59, (±)-N^2-[N-[2-(Mercaptomethyl)-4-methyl-1-oxopentyl]-glycyl]-L-glutamine, ammonium salt (1:1)]  330 nM
30. CC(C)C[C@H](NC(=O)[C@H](Cc1ccccc1)N[C@@H](Cc1ccccc1)C(=O)O)C(=O)O [Example 80, N-[N-[(S)-l-Carboxy-2-phenylethyl]-L-phenylalanyl]-L-leucine]  330 nM
31. CC(CS)C(=O)NCC(=O)O (racemic) [Example 16, (±)-N-(3-Mercapto-2-methyl-1-oxopropyl)glycine]  370 nM
32. CC(C)[C@H](NC(=O)CS)C(=O)N[C@@H](Cc1c[nH]c2ccccc12)C(=O)O [lithium salt]  680 nM
33. CC(CS)C(=O)N[C@@H](CCCNC(=N)N)C(=O)O (mixture of isomers) [Example 3, N-(DL-3-Mercapto-2-methyl-1-oxopropyl)-L-arginine]  720 nM
34. C[C@H](CS)C(=O)N[C@H](C(=O)O)[C@@H](C)O [Example 41, (S)-N-(3-Mercapto-2-methyl-1-oxopropyl)-L-threonine]  730 nM
35. CC(C)C[C@@H](NC(=O)[C@@H](Cc1ccccc1)NC(=O)[C@@H]1CCCC[C@H]1C(=O)O)C(=O)O (mixture of isomers) [Example 81, (trans)(R,R)-N-[N-[(2-Carboxycyclohexyl)carbonyl]-L-phenylalanyl]-L-leucine]  1200 nM
36. CC(C)C[C@H](NC(=O)[C@H](Cc1ccccc1)NC(=O)[C@@H]1CCCC[C@H]1S)C(=O)O (single isomer, unassigned; isomer a) [Example 68, (trans)-N-[N-[(2-Mercaptocyclohexyl)carbonyl]-L-phenylalanyl]-L-leucine (isomer A)]  1200 nM
